According to article PMC11243320, “Tailoring Fibroblast-Activation Protein Targeting for Theranostics: A Comparative Preclinical Evaluation of the ^68Ga- and ^177Lu-Labeled Monomeric and Dimeric Fibroblast-Activation Protein Inhibitors DOTA.SA.FAPi and DOTAGA.(SA.FAPi)2” (Molecules, 2024):

Test system: U87MG tumor-bearing mice
Test: Ex vivo biodistribution of 68Ga-labeled radiotracers in U87MG xenografts
Description: U87MG and PC3 tumor-bearing mice: Female athymic BALB/c (6 weeks/16–20 g) and male athymic BALB/c nude mice (6 weeks/20–25 g) were implanted with U87MG or PC3 cells (5 × 10^6/100 µL PBS) into their right shoulder, respectively. The animals were used for biodistribution and PET/SPECT/CT imaging studies (Animal License No: BE98/2021).
Ten pmol (0.08–0.1 MBq) of the radiotracers in 100 µL of NaCl 0.9% were injected intravenously into the tail vein of U87MG and PC3 tumor-bearing mice and biodistribution studies were conducted at 1, 2, and 3 h after injection.
Saturation Binding Studies […]
The radioactivity of the culture medium, the receptor bound , the internalized and the externalized fractions were measured in a γ -counter. The externalized fraction of radioactivity was ex-pressed as the percentage of the total internalized amount.
[68Ga]Ga -DOTA.SA.FAPi and [ 68Ga]Ga -DOTAGA.(SA.FAPi) 2
Ten pmol ( 0.08 –0.1 MBq) of [68Ga]Ga -monomer and [ 68Ga]Ga -dimer in 100 µ L of NaCl 0.9% were injected intravenously into the tail vein of U87MG or PC3 tumor bearing mice . The PC3 tumor-bearing mice were used between the 15th and 17th day after the xenograft implantation and the size was 281 ± 75 mm3. The U87MG tumor-bearing mice were used between the 7th and 9th day after the implantation and the size was 210 ± 34 mm3. Animals were terminally anesthetized by intraperitoneal injection of an overdose of pento-barbital natrium (150 mg/kg; Streuli Pharma SA, Uznach, Switzerland) at 1, 2 and 3 h after injection of the radiotracers. The organs of interest were dissected and weighed, and the radioactivity in the tissue samples […]
was counted in a γ-counter. Biodistribution data are given as the percent of injected activity per gram of tissue (% IA/g) and as means ± SD (n = 4). […]
each radiotracer along with 20 nmol of UAMC1110 (total injected volume: 100 µL) and biodistribution stud-ies were performed 2 h after injection.
[177Lu]Lu-DOTA.SA.FAPi and [177Lu]Lu-DOTAGA.(SA.FAPi)2
Ten pmol (0.06-0.08 MBq) of [177Lu]Lu-monomer and [177Lu]Lu-dimer in 100 µL of NaCl 0.9% were injected intravenously into the tail vein of PC3 tumor-bearing mice. The PC3 tumor-bearing mice were used between the 15th and 17th day after the xenograft implantation and its size was 281 ± 75 mm3. Animals were terminally anesthetized by intraperitoneal injection of an overdose of pentobarbital natrium (150 mg/kg; Streuli Pharma SA, Uznach, Switzerland) 1, 4, 24 and 48 h after the injection of [177Lu]Lu-DOTA.SA.FAPi and at 4, 24, 48, 72 and 96 h after the injection of [177Lu]Lu-DOTAGA.(SA.FAPi)2. The organs of interest were dissected and weighed, and the radioactivity in the tissue samples was counted in a γ-counter. The biodistribution data are given as the percent of injected activity per gram of tissue (% IA/g) and as means ± SD (n = 4). […]
blood pools or if they were necrotic. Both tumor types were “clean” without extended vascularization; there […]
Small Animal Imaging Studies
PET images were obtained after injection of 200 pmol of [68Ga]Ga-DOTA.SA.FAPi and [68Ga]Ga-DOT-AGA.(SA.FAPi)2 (1.0–1.6 MBq/100 μL) into U87MG or PC3 xenografts at 1, 2 and 3 h after injection. Static imaging was acquired for a time period between 10 and 45 min at 1, 2 and 3 h post injection, respectively.
To visualize the extent of FAP-specific tumor uptake, PET/CT blocking studies were performed as described above, and static scans were obtained for 30 min 2 h after the injection of the radiotracer along with the blocking agent (20 nmol).
PET images were corrected for gallium-68 decay and reconstructed with 12 iterations of the maximum a posteriori (MAP) algorithm using a voxel size of 0.25 mm. No correction was applied for attenuation. In addition, a point spread function iterative deconvolution was applied. The images were normalized, filtered using a Gaussian 3D algorithm with a 1.3 mm isotropic kernel and generated using PMOD software. The CT was carried out using step and shoot mode and employed 45 kVp and 400 uA as settings. The images […]

[1] = 2 h blocking (20 nmol UAMC1110)

N#C[C@@H]1CC(F)(F)CN1C(=O)CNC(=O)c1ccnc2ccc(OCCCCNc3c(NCCNC(=O)CN4CCN(CC(=O)[O-])CCN(CC(=O)[O-])CCN(CC(=O)[O-])CC4)c(=O)c3=O)cc12.[68Ga+3] [[^68Ga]Ga-DOTA.SA.FAPi]
Biodistribution Blood (1 h): 13.4 ± 0.2 % IA/g
Biodistribution Bone (1 h): 2.1 ± 0.2 % IA/g
Biodistribution Heart (1 h): 4.9 ± 0.6 % IA/g
Biodistribution Intestine (1 h): 2.9 ± 0.5 % IA/g
Biodistribution Kidney (1 h): 3.5 ± 0.7 % IA/g
Biodistribution Liver (1 h): 3.2 ± 0.4 % IA/g
Biodistribution Lung (1 h): 3.2 ± 1.7 % IA/g
Biodistribution Muscle (1 h): 2.6 ± 1.4 % IA/g
Biodistribution Pancreas (1 h): 9.7 ± 2.7 % IA/g
Biodistribution Spleen (1 h): 2.3 ± 0.4 % IA/g
Biodistribution Stomach (1 h): 2.1 ± 0.6 % IA/g
Biodistribution U87MG-Tumor (1 h): 6.5 ± 0.7 % IA/g
Tumor/Blood ratio (1 h): 0.5 ± 0.03
Tumor/Liver ratio (1 h): 2.0 ± 0.3
Tumor/Muscle ratio (1 h): 2.3 ± 0.7
Tumor/Pancreas ratio (1 h): 0.7 ± 0.2
Biodistribution Blood (2 h): 8.5 ± 1.5 % IA/g
Biodistribution Bone (2 h): 1.3 ± 0.2 % IA/g
Biodistribution Heart (2 h): 3.1 ± 0.9 % IA/g
Biodistribution Intestine (2 h): 3.2 ± 0.7 % IA/g
Biodistribution Kidney (2 h): 2.7 ± 0.6 % IA/g
Biodistribution Liver (2 h): 3.1 ± 0.9 % IA/g
Biodistribution Lung (2 h): 2.2 ± 1.0 % IA/g
Biodistribution Muscle (2 h): 2.8 ± 1.1 % IA/g
Biodistribution Pancreas (2 h): 10.5 ± 2.8 % IA/g
Biodistribution Spleen (2 h): 1.6 ± 0.5 % IA/g
Biodistribution Stomach (2 h): 2.0 ± 0.5 % IA/g
Biodistribution U87MG-Tumor (2 h): 5.2 ± 1.4 % IA/g
Tumor/Blood ratio (2 h): 0.7 ± 0.3
Tumor/Liver ratio (2 h): 1.7 ± 0.5
Tumor/Muscle ratio (2 h): 1.9 ± 1.5
Tumor/Pancreas ratio (2 h): 0.5 ± 0.2
Biodistribution Blood [1]: 0.5 ± 0.1 % IA/g
Biodistribution Bone [1]: 1.7 ± 0.6 % IA/g
Biodistribution Heart [1]: 0.7 ± 0.3 % IA/g
Biodistribution Intestine [1]: 1.3 ± 0.1 % IA/g
Biodistribution Kidney [1]: 2.5 ± 0.8 % IA/g
Biodistribution Liver [1]: 0.3 ± 0.03 % IA/g
Biodistribution Lung [1]: 1.1 ± 0.2 % IA/g
Biodistribution Muscle [1]: 1.4 ± 0.8 % IA/g
Biodistribution Pancreas [1]: 0.6 ± 0.4 % IA/g
Biodistribution Spleen [1]: 0.7 ± 0.3 % IA/g
Biodistribution Stomach [1]: 0.7 ± 0.4 % IA/g
Biodistribution U87MG-Tumor [1]: 1.1 ± 0.8 % IA/g
Biodistribution Blood (3 h): 6.2 ± 0.5 % IA/g
Biodistribution Bone (3 h): 3.0 ± 1.6 % IA/g
Biodistribution Heart (3 h): 3.7 ± 0.7 % IA/g
Biodistribution Intestine (3 h): 3.5 ± 0.7 % IA/g
Biodistribution Kidney (3 h): 3.4 ± 0.3 % IA/g
Biodistribution Liver (3 h): 3.9 ± 0.3 % IA/g
Biodistribution Lung (3 h): 3.1 ± 1.0 % IA/g
Biodistribution Muscle (3 h): 3.1 ± 0.9 % IA/g
Biodistribution Pancreas (3 h): 8.7 ± 1.3 % IA/g
Biodistribution Spleen (3 h): 2.8 ± 1.0 % IA/g
Biodistribution Stomach (3 h): 2.2 ± 0.5 % IA/g
Biodistribution U87MG-Tumor (3 h): 4.9 ± 1.0 % IA/g
Tumor/Blood ratio (3 h): 0.8 ± 0.3
Tumor/Liver ratio (3 h): 1.3 ± 0.5
Tumor/Muscle ratio (3 h): 1.7 ± 1.2
Tumor/Pancreas ratio (3 h): 0.6 ± 0.3
